Legend:
Type in all cases: in vivo, human
[1] = test system: patients with infantile spasms (IS); assay: Clinical outcome assessment of ACTH treatment (spasms frequency, response, relapse); parameters: Sf diff (spasms frequency, baseline minus follow-up) / Seizure frequency, Follow-up / Spasms frequency Follow-up / Spasms frequency Change: unit not given here; conditions: for Spasms frequency Change / Spasms frequency Follow-up: median
From the text: One-hundred-fifty (83 males; 55%) out of 170 patients were included for the clinical outcome assessment study. Mean age of spasms onset was 6.6 (±3.4) months. The mean time to treatment and follow-up duration were 39 (±50) and 38 (±49) days, respectively. Fifty-one out of 150 (34%) of patients had abnormal MRI findings.
The etiology of IS was: genetic/inborn metabolic in 28 (19%), unknown in 71 (47%), and structural brain abnormality (acquired and congenital) in 51 (34%). […] During the ACTH treatment, 86 (57%) patients were receiving concomitant ASMs (Table 1).
One hundred-one of 150 patients (67%) were deemed responders to the ACTH treatment at follow-up assessment, with IS cessation and resolution of hypsarrhythmia (Table 2). Thirty out of 101 initial responders (30%) experienced a relapse. Clinical parameters such as age of onset, sex, MRI finding, previous seizure history, previous and concomitant AED treatment, etiology, and baseline EEG were not prognostic factors for response and relapse (Tables 2-3).
(§1) Different criteria have been utilized to determine response to treatment in previous studies. Our EEG responder criteria are consistent with the criteria used in several previous studies, comprising IS freedom for at least seven consecutive days during treatment, and disappearance of hypsarrhythmia on follow-up EEG assessment. Although the presence of hypsarrhythmia has been considered crucial for the diagnosis and evaluating treatment response in IS, hypsarrhythmia may not be present at diagnosis in 25% of cases. Lack of hypsarrhythmia may be seen in patients with prior AED treatment, the early phase of IS, and late onset of spasms. […] Our findings highlight the importance of new quantitive biomarkers for evaluating EEGs in IS.

[2] = test system: patients with infantile spasms (IS); assay: Quantitative EEG analysis (manual/automatic spike count, delta power) before and after ACTH treatment; conditions: for Delta Power Change / Spike Count (Automatic) Change / Spike Count (Manual) Change / Delta Power Follow-up / Spike Count (Manual) Follow-up / Spike Count (Automatic) Follow-up: median
Method: In act 602, EEG data of a subject is obtained in any manner described above in relation to act 102 of FIG. 1. In act 604, a power spectral density (PSD) of at least part of the EEG data is calculated. The PSD, as discussed above, provides information on the amount of power present in various frequency components of the EEG signal(s). As one non-limiting example, a Fast Fourier Transform (FFT) of one or more EEG signals may be performed to determine the PSD of the EEG signals. Suitable parameters of the FFT operation may include a time constant of 0.16 seconds, a sampling rate of 64 Hz, and/or an FFT window duration of 2 seconds. In some embodiments, a high-pass, low-pass and/or band-pass filter may be applied to EEG signals prior to generation of a PSD. For instance, frequencies above 35 Hz may be filtered from the EEG signals and a PSD generated based on the resulting filtered EEG signals. It will be appreciated that, because an FFT operates on a window of time of the EEG signal(s), a number of PSDs may be calculated for a number of (overlapping or non-overlapping) windows of time of the EEG signal(s). As a result, act 604 may be performed numerous times.
In act 606, a delta power is calculated based on a PSD calculated in act 604. In cases where a number of PSDs are calculated in act 604, a number of delta powers may be calculated in act 606 by calculating a delta power for each PSD. In some cases, the delta power may vary over time within the EEG signals obtained from a subject in a single session. In these cases, it may be preferable to obtain a single average value of the delta power from the EEG signals by, for instance, calculating the mean of the calculated delta power. Delta power may be calculated by determining the total spectral power present within the calculated PSD data between the frequency bounds of the delta band (e.g., 0.5 Hz to 4 Hz). In some cases, the delta power may be calculated by determining a total area under the PSD curve within the delta band's frequency range.
In act 702, EEG data of a subject is obtained in any manner described above in relation to act 102 of FIG. 1. In act 704, a plurality of wavelet coefficients may be calculated based on the EEG data obtained in act 702. As discussed above, wavelet analysis may represent a particularly desirable approach to identifying spikes due to the natural ability of wavelets to identify rapid changes in a signal's amplitude. Act 704 may comprise any suitable approach to determining wavelet coefficients, including a continuous wavelet transform (CWT), a discrete wavelet transform (DWT) and/or a stationary wavelet transform (SWT). In some embodiments, an SWT analysis may be preferable because the results are invariant with respect to time shifts, although a greater redundancy in data may be produced compared with a DWT analysis, for example. Any suitable wavelet family may be utilized during act 704, including haar, daubechies, biorthogonal, coiflets and/or symlets (e.g., symlet4).
In act 706, spikes are identified from the wavelet coefficients determined in act 704. Act 706 may comprise identifying a number of instances in which the wavelet coefficients have values above or below a suitable threshold that represents an incidence of a spike, to produce a spike count. A spike frequency may be determined by dividing the spike count by the total amount of time represented by the EEG data.
Fifty out of these 150 patients had original EEG data available for analysis met criteria for the comparison of baseline and follow-up electrophysiological evaluation.
The magnitude of changes in the EEG parameters (spike quantification and slow wave activity) were more prominent in patients responders as compared to non-responders (MSC diff: 169 vs.44 spikes; p<0.001, ASCA diff: 157 vs.55 spikes; p<0.001, DP diff: 11.3 vs.2.3, Sf diff: 158 vs. 60; p<0.05 respectively in responders vs. non-responders, Table 5).

[3] = test system: patients with infantile spasms (IS); assay: EEG pattern (hypsarrhythmia) at follow-up assessment after ACTH treatment
From the text: The presence of hypsarrhythmia is often used as a diagnostic criteria for IS, and is characterized by an abnormal interictal pattern consisting of high amplitude and irregular waves and spikes in a background of chaotic and disorganized activity within the EEG signals.
At baseline, 54 (36%) had hypsarrhythmia pattern, 75 (50%) had modified hypsarrhythmia pattern, and 21 (14%) had other abnormalities (without hypsarrhythmia) (Table 1). At the follow-up assessment, 58 patients with good response had abnormal EEG findings (abnormalities other than hypsarrhythmia, such as multifocal spikes or sharp waves, abnormal slow wave and fast activity). In terms of the EEG pattern, there was no difference between poor- and good responders, and between the patients who relapsed and the sustained responders (Tables 2-3).
as §1

[4] = Patients without Relapse (n: 20)
[5] = percentage of 101 initial responders
[6] = patients with sustained response

In the case of “Adrenocorticotropic hormone (SYSMEHFRWGKPVGKKRRPVKVYPNGAEDESAEAFPLEF; Corticotropin; UniProt P01189 138-176, looked up) [ACTH, polypeptide tropic hormone produced by and secreted by the anterior pituitary gland; used to treat infantile spasms]”, the “relapse rate among initial responders” value ([1]; 30 of 101 initial responders) is reported as 30%, the “response rate (responders to the ACTH treatment at follow-up: IS cessation and resolution of hypsarrhythmia)” value ([1]; 101 of 150 patients, follow-up after day 14 of treatment) is reported as 67% and the “Spasms frequency follow up/week” value ([1]; Good Response (n): 101, baseline 318) is reported as 80 /week. For the same substance, the “Spasms frequency Change” value ([1]; Good responder (n: 31)) was 84, the “Spasms frequency Follow-up” value ([1]; Good responder (n: 31), baseline 122) was 0 and the “Spasms frequency Change” value ([1]; Patients with Relapse (n: 11)) was 11. For the same substance, the “Spasms frequency Follow-up” value ([1]; Patients with Relapse (n: 11), baseline 140) was 42, the “Spasms frequency Change” value [1, 4] was 117 and the “Spasms frequency Follow-up” value ([1]; Patients without Relapse (n: 20), baseline 117) was 0. The “Spasms frequency follow up/week” value ([1]; Poor Response (n): 49, baseline 242) was 233 /week, the “Spasms frequency Change” value ([1]; Poor responder (n: 19)) was 43 and the “Spasms frequency Follow-up” value ([1]; Poor responder (n: 19), baseline 105) was 70. The “Spasms frequency follow up/week” value ([1]; Relapse (n): 30, baseline 311) was 270 /week, the “Spasms frequency follow up/week” value ([1]; Without Relapse (n): 71, baseline 322) was 0 /week and the “Seizure frequency, Follow-up” value ([1]; n: 50, mean, baseline 192) was 70. For the same substance, the “Clinical response No, number of patients” value ([1]; n: 150) was 49, the “Clinical response Yes, number of patients” value ([1]; n: 150, IS cessation and resolution of hypsarrhythmia at follow-up) was 101 and the “spasm frequency after ACTH treatment (median weekly)” value ([1]; n: 150, before treatment 294, p<0.001) was 130. For the same substance, the “Follow up spasms frequency” value ([1]; n: 150, mean (SD), baseline 294/week) was 130 /week, the “Sf diff (spasms frequency, baseline minus follow-up)” value ([1]; non-responders) was 60 and the “Relapse (if good response exist) No, number of patients” value ([1]; of 101 initial responders) was 71. The “Relapse (if good response exist) Yes, number of patients” value ([1]; of 101 initial responders) was 30, the “Relapse (if good response exist) No, share of patients” value [1, 5] was “(70.3)” and the “Relapse (if good response exist) Yes, share of patients” value [1, 5] was “(29.7)”. The “Clinical response No, share of patients” value ([1]; percentage of n: 150) was “(32.7)”, the “Clinical response Yes, share of patients” value ([1]; percentage of n: 150) was “(67.3)” and the “Sf diff (spasms frequency, baseline minus follow-up)” value ([1]; responders) was 158. For the same substance, the “Delta Power Change” value ([2]; Good responder (n: 31)) was 10.2, the “Spike Count (Automatic) Change” value ([2]; Good responder (n: 31)) was 144 and the “Spike Count (Manual) Change” value ([2]; Good responder (n: 31)) was 153. The “Delta Power Follow-up” value ([2]; Good responder (n: 31), baseline 24.7) was 13.4, the “Spike Count (Manual) Follow-up” value ([2]; Good responder (n: 31), baseline 232) was 48 and the “Spike Count (Automatic) Follow-up” value ([2]; Good responder (n: 31), baseline 244) was 53. For the same substance, the “Delta Power Change” value ([2]; Patients with Relapse (n: 11)) was 6, the “Spike Count (Automatic) Change” value ([2]; Patients with Relapse (n: 11)) was 50 and the “Spike Count (Manual) Change” value ([2]; Patients with Relapse (n: 11)) was 51. For the same substance, the “Delta Power Follow-up” value ([2]; Patients with Relapse (n: 11), baseline 23.6) was 17.1, the “Spike Count (Manual) Follow-up” value ([2]; Patients with Relapse (n: 11), baseline 187) was 86 and the “Spike Count (Automatic) Follow-up” value ([2]; Patients with Relapse (n: 11), baseline 197) was 117. The “Delta Power Change” value [2, 4] was 14.6, the “Spike Count (Automatic) Change” value [2, 4] was 176 and the “Spike Count (Manual) Change” value [2, 4] was 212. The “Delta Power Follow-up” value ([2]; Patients without Relapse (n: 20), baseline 26.4) was 10.5, the “Spike Count (Manual) Follow-up” value ([2]; Patients without Relapse (n: 20), baseline 247) was 10 and the “Spike Count (Automatic) Follow-up” value ([2]; Patients without Relapse (n: 20), baseline 257) was 28.5. For the same substance, the “Delta Power Change” value ([2]; Poor responder (n: 19)) was 3.1, the “Spike Count (Automatic) Change” value ([2]; Poor responder (n: 19)) was 47 and the “Spike Count (Manual) Change” value ([2]; Poor responder (n: 19)) was 52. The “Delta Power Follow-up” value ([2]; Poor responder (n: 19), baseline 21.7) was 19.5, the “Spike Count (Automatic) Follow-up” value ([2]; Poor responder (n: 19), baseline 236) was 152 and the “Spike Count (Manual) Follow-up” value ([2]; Poor responder (n: 19), baseline 242) was 168. For the same substance, the “DP (delta power) at follow-up EEG” value ([2]; n: 50, baseline 25.1, p<0.001) was 17.2 μV, the “Delta Power, Follow-up EEG” value ([2]; n: 50, mean, baseline 25.1) was 17.2 and the “Spike Count Automatic, Follow-up EEG” value ([2]; n: 50, mean, baseline 232) was 113. For the same substance, the “Spike Count Manual, Follow-up EEG” value ([2]; n: 50, mean, baseline 234) was 112, the “ASCA diff (automatic spike count, baseline minus follow-up)” value ([2]; patients who relapsed) was 75 and the “DP diff (delta power, baseline minus follow-up)” value ([2]; patients who relapsed) was 5.4. For the same substance, the “MSC diff (manual spike count, baseline minus follow-up)” value ([2]; patients who relapsed) was 76, the “ASCA diff (automatic spike count, baseline minus follow-up)” value [2, 6] was 202 and the “DP diff (delta power, baseline minus follow-up)” value [2, 6] was 14.6. The “MSC diff (manual spike count, baseline minus follow-up)” value [2, 6] was 220, the “ASCA diff (automatic spike count, baseline minus follow-up)” value ([2]; responders) was 157 spikes and the “DP diff (delta power, baseline minus follow-up)” value ([2]; responders) was 11.3. For the same substance, the “MSC diff (manual spike count, baseline minus follow-up)” value ([2]; responders) was 169 spikes, the “Follow-up EEG features: Normal EEG, number of patients” value ([3]; n: 150) was 44 and the “Follow-up EEG features: Without Hypsarrhythmia, number of patients” value ([3]; n: 150, baseline 21) was 94. The “Follow-up EEG features: Hypsarrhythmia, number of patients” value ([3]; n: 150, baseline 54) was 6, the “Follow-up EEG features: Modified Hypsarrhythmia, number of patients” value ([3]; n: 150, baseline 75) was 6 and the “Follow-up EEG features: Normal EEG, share of patients” value ([3]; percentage of n: 150) was “(29.3)”. For the same substance, the “Follow-up EEG features: Without Hypsarrhythmia, share of patients” value ([3]; percentage of n: 150, baseline (14)) was “(62.7)”, the “Follow-up EEG features: Hypsarrhythmia, share of patients” value ([3]; percentage of n: 150, baseline (36)) was “(4)” and the “Follow-up EEG features: Modified Hypsarrhythmia, share of patients” value ([3]; percentage of n: 150, baseline (50)) was “(4)”.
